Results taken from paper PMC11879792 (Frontiers in Pharmacology, 2025).

Key:
[1] = parameters: method as in Diasio and Harris, 1989; conditions: parenteral administration of 5-FU; approximately; ref Diasio and Harris, 1989; cited from earlier work
[2] = Single-dose, two-cycle crossover PK/bioequivalence trial of S-1 capsules, fasting; assay type: in vivo, Chinese cancer patients; conditions: human, plasma, oral, 100 mg; fasting conditions
Text: This study, a multicenter, randomized, open-label, single-dose, two-cycle crossover investigation, was distinctly divided into fasting and fed trials. Each subject received either the test or reference formulation in a separate cycle. Each cycle consisted of a 4-day inpatient phase, followed by a 7-day washout period between cycles to ensure that any residual effects from the previous formulation had fully dissipated before the initiation of the next cycle. To avoid the residual effects of fasting or feeding that could influence the results, the fasting and fed trials each enrolled 60 subjects. Subjects were randomly allocated to one of the two treatment sequences, namely, test-reference or reference-test, in a 1:1 ratio. All eligible subjects were admitted to the clinical ward 1 day prior to drug administration, adhering to a minimum fasting period of 10 h before drug intake. In the fasting trial, subjects were required to fast. Subsequently, they ingested a single dose comprising two capsules (50 mg each) of either the test or reference formulation, accompanied by 240 mL of warm water. […]
OXO was determined in blood, which was performed under the following conditions: the aqueous solution containing 5 mM ammonium acetate (mobile phase A) and acetonitrile (mobile phase B). […]

Tmax [2] [h] | Structure (SMILES) | half-life [1] [min]
– | O=c1[nH]cc(F)c(=O)[nH]1 [5-FU, 5-fluorouracil] | 8 to 20
~1 | Oc1cc(O)c(Cl)cn1 [CDHP, gimeracil] | –
